Reference: ChEMBL document CHEMBL1127390, “Novel acyclic nucleotides and nucleoside 5'-triphosphates imitating 2',3'-dideoxy-2',3'-didehydronucleotides: synthesis and biological properties” (1994)
pEC50: −log10 of the molar value. Blank lines part the entries; values can stand above or below the molecule they belong to. Calls of active or inactive are those of the source. No cut-off for these calls is given here.

Key:
[1] = target: Human immunodeficiency virus type 1 reverse transcriptase (Human immunodeficiency virus 1) (UniProt Q72547); assay: In vitro effective dose for the inhibition of human immunodeficiency virus (HIV) reverse transcriptase in MT-4 and peripheral lymphocyte (PBL) cell cultures; NI is No Inhibition up to a concentration of 100 uM; assay type: functional
MT4 [2] = assay: Anti HIV-l activity in infected MT-4 cells cultures; NA is NO Activity; assay type: functional, cell-based; details: Homo sapiens
[3] = target: Human immunodeficiency virus type 1 reverse transcriptase (Human immunodeficiency virus 1) (UniProt Q72547); assay: Tested for percent inhibition of the human immunodeficiency virus (HIV) reverse transcriptase in MT-4; assay type: functional
MT4 [4] = assay: Activity in HIV-l infected MT-4 cells cultures; No activity; assay type: functional, cell-based; details: Homo sapiens
MT4 [5] = assay: Anti HIV-l activity in infected MT-4 cells cultures; assay type: functional; details: Homo sapiens, read-out: ED50 (the source's name)

ED50 [1]: No inhibition
SMILES: Nc1ncnc2c1ncn2C/C=C\CCOP(=O)(O)OP(=O)(O)OP(=O)(O)O

SMILES: Nc1ccn(C/C=C\COCP(=O)(O)O)c(=O)n1
ED50 (MT4 [2]): inactive

SMILES: Nc1nc(O)c2ncn(C/C=C\COCP(=O)(O)O)c2n1
ED50 (MT4 [2]): inactive

SMILES: Cc1cn(C/C=C\COCP(=O)(O)O)c(=O)[nH]c1=O
ED50 (MT4 [2]): inactive

ED50 [3]: 50 µM
SMILES: Nc1ccn(C/C=C\COCP(=O)(O)OP(=O)(O)OP(=O)(O)O)c(=O)n1

SMILES: Nc1ncnc2c1ncn2C/C=C\CO
ED50 (MT4 [4]): inactive

SMILES: Nc1ncnc2c1ncn2C/C=C\COCP(=O)(O)O
pEC50 (MT4 [5]): 5.05
